Assay results published in patent publication US3983239A, “Hexahydro-γ-carboline derivatives and their salts” (priority 1974, dated 1976).
Like-named read-outs stand apart in the source and are kept apart here.

How the values were obtained:
[1] = tested on: methamphetamine-induced stereotypy; experiment: Potentiation of methamphetamine-induced stereotypy; format: in vivo, male Wistar HLA rats; parameters: key: ---: Marked antagonism; --: Moderate antagonism; -: Slight antagonism; 0: No interaction; +: Slight potentiation; ++: Moderate potentiation; +++: Marked potentiation; conditions: methamphetamine 2 mg/kg i.p.
Method: 1. Potentiation of methamphetamine-induced stereotypy
This test was carried out by a modified method of R. T. Naylor (Life Sci., Vol. 10, page 909, 1971).
To male Wistar HLA rats, weighing 200 to 250 g (each group: 6 rats), were intraperitoneally administered the compounds to be tested. After 20 minutes, methamphetamine (2 mg/kg) was intraperitoneally administered to the test animals, and then the appeared stereotypy was observed. The effects of the test compounds were evaluated by the intensity of the stereotypy and the termination thereof.

catalepsy = experiment: Cataleptogenic activity, rats; format: in vivo; conditions: Rattus norvegicus, po, read-out: ED50 value, cataleptogenic activity
Text: The compounds of the present invention show the same central nervous system depressing pattern as the existing neuroleptics, such as an inhibiting activity of locomotion, an inhibiting activity of conditioned avoidance response, a cataleptogenic activity, a muscle relaxant activity, an inhibiting activity of self-stimulation, and an anti-methamphetamine activity in terms of locomotor activity.

[2] = tested on: conditioned avoidance response; experiment: Inhibiting activity of conditioned avoidance response, rats (Shuttle box method); format: in vivo; conditions: Rattus norvegicus, po, read-out: ED50 value, inhibiting activity of conditioned avoidance response
self-stimulation = experiment: Inhibiting activity of self-stimulation, rats; format: in vivo; conditions: Rattus norvegicus, po, read-out: ED50 value, inhibiting activity of self-stimulation
Text: 8) J. Olds et al; J. Comp. Physiol. Psychol., Vol. 47, page

locomotion [3] = experiment: Inhibiting activity of locomotion, rats (Open-field method); format: in vivo; conditions: Rattus norvegicus, read-out: ED50 value, inhibiting activity of locomotion
Text: 3) Open-field method [C.S. Hall; J. Comp. Physiol. Psychol.

muscle relaxant activity = experiment: Muscle relaxant activity, rats; format: in vivo; conditions: Rattus norvegicus, read-out: ED50 value, muscle relaxant activity
[4] = tested on: conditioned avoidance response; experiment: Inhibiting activity of conditioned avoidance response, mice; format: in vivo; conditions: Mus musculus, po, read-out: ED50 value, inhibiting activity of conditioned avoidance response
Acute toxicity, mice = conditions: mouse, in vivo; for LD50 at 96 h: observed 4 days
Text: (§1) Male and female STD-dd Y mice, weighing 20 to 22 g (each group: 10 mice) and male Wistar HLA rats, weighing 250 to 300 g (each group: 10 to 20 rats) were used.

locomotion [5] = experiment: Inhibiting activity of locomotion, mice (Animex method); format: in vivo; conditions: Mus musculus, po, read-out: ED50 value, inhibiting activity of locomotion
Acute toxicity, rats = conditions: rat, in vivo, male, observed 4 days
Text: as §1

SMILES | Stereotypy Intensity ([1]; 2.0 mg/kg i.p.) | Stereotypy Termination ([1]; 2.0 mg/kg i.p.) | Stereotypy Intensity ([1]; 5.0 mg/kg i.p.) | Stereotypy Termination ([1]; 5.0 mg/kg i.p.) | Stereotypy Intensity ([1]; 10.0 mg/kg i.p.) | Stereotypy Termination ([1]; 10.0 mg/kg i.p.) | Stereotypy Intensity ([1]; 1.0 mg/kg i.p.) | Stereotypy Termination ([1]; 1.0 mg/kg i.p.) | other results
CCc1ccc2c(c1)C1CN(CCCC(=O)c3ccc(F)cc3)CCC1N2.Cl.Cl (stereo not shown) [B, 8-Ethyl-2-[γ-(p-fluorobenzoyl)propyl]-2,3,4,4a,5,9b-hexahydro-1H-pyrido[4,3-b]indole dihydrochloride] | + | + | +++ | +++ | +++ | +++ |  |  | 
Cc1ccc2c(c1)C1CN(CCCC(=O)c3ccc(F)cc3)CCC1N2C.Cl.Cl (stereo not shown) [C, 5,8-Dimethyl-2-[γ-(p-fluorobenzoyl)propyl]-2,3,4,4a,5,9b-hexahydro-1H-pyrido[4,3-b]indole dihydrochloride] | 0 | 0 | ++ | ++ | ++ | +++ | 0 | 0 | 
CN(C)CCCN1c2ccccc2Sc2ccc(Cl)cc21 [Chlorpromazine] | 0 | 0 | -- | + | --- | --- |  |  | ED50 (catalepsy): 16.1 mg/kg; ED50 [2]: 7.04 mg/kg; ED50 (self-stimulation): 7.04 mg/kg; ED50 (locomotion [3]; ip): 2.41 mg/kg; ED50 (locomotion [3]; po): 9.88 mg/kg; ED50 (muscle relaxant activity; ip): 2.07 mg/kg; ED50 (muscle relaxant activity; po): 4.38 mg/kg; ED50 [4]: 5.65 mg/kg; LD50 at 168 h (Acute toxicity, mice; po, male, observed 7 days): 476 mg/kg; ED50 (locomotion [5]): 6.34 mg/kg
CN1CCN(C2=Nc3cc(Cl)ccc3Nc3ccccc32)CC1 [Clozapine, 8-chloro-11-(4-methyl-1-piperazinyl)-5H-dibenzo[b,e][1,4]-diazepine] |  |  |  |  |  |  |  |  | ED50 (catalepsy; rats, p.o.): > 100 mg/kg; ED50 ([2]; rats, p.o.): 34.7 mg/kg; ED50 (self-stimulation; rats, p.o.): 61.8 mg/kg; LD50 at 96 h (Acute toxicity, rats; iv): 42 mg/kg; LD50 at 96 h (Acute toxicity, rats; po): 251 mg/kg; LD50 at 96 h (Acute toxicity, rats; sc): 272 mg/kg; ED50 (locomotion [3]; ip, rats, i.p.): 5.54 mg/kg; ED50 (locomotion [3]; po, rats, p.o.): 27.4 mg/kg; ED50 (muscle relaxant activity; ip, rats, i.p.): 5.41 mg/kg; ED50 (muscle relaxant activity; po, rats, p.o.): 28.1 mg/kg; ED50 ([4]; mice, p.o.): 9.75 mg/kg; LD50 at 96 h (Acute toxicity, mice; iv, male): 37 mg/kg; LD50 at 96 h (Acute toxicity, mice; po, female): 212 mg/kg; LD50 at 96 h (Acute toxicity, mice; po, male): 202 mg/kg; LD50 at 96 h (Acute toxicity, mice; sc, male): 194 mg/kg; ED50 (locomotion [5]; mice, p.o.): 7.5 mg/kg
CCN1c2ccc(C)cc2C2CN(CCCC(=O)c3ccc(F)cc3)CCC21.Cl.Cl (stereo not shown) [D, 5-Ethyl-8-methyl-2-[γ-(p-fluorobenzoyl)propyl]-2,3,4,4a,5,9b-hexahydro-1H-pyrido[4,3-b]indole dihydrochloride] | 0 | 0 | + | ++ | +++ | +++ | 0 | 0 | 
O=C(CCCN1CCC(O)(c2ccc(Cl)cc2)CC1)c1ccc(F)cc1 [Haloperidol] |  |  |  |  |  |  | --- | -- | Stereotypy Intensity ([1]; 0.1 mg/kg i.p.): 0; Stereotypy Termination ([1]; 0.1 mg/kg i.p.): -; Stereotypy Intensity ([1]; 0.2 mg/kg i.p.): -; Stereotypy Termination ([1]; 0.2 mg/kg i.p.): --; Stereotypy Intensity ([1]; 0.5 mg/kg i.p.): -- -; Stereotypy Termination ([1]; 0.5 mg/kg i.p.): --
Cc1ccc2[nH]c3c(c2c1)CN(CCCC(=O)c1ccc(F)cc1)CC3.Cl [compound 1, 8-Methyl-2-[γ-(p-fluorobenzoyl)propyl]-2,3,4,5-tetrahydro-1H-pyrido[4,3-b]indole hydrochloride] | 0 | 0 | 0 | 0 | 0 | 0 | 0 | 0 | 
Cl.Cl.O=C(CCCN1CCC2Nc3ccccc3C2C1)c1ccc(F)cc1 (stereo not shown) [compound 2, 2-[γ-(p-Fluorobenzoyl)propyl]-2,3,4,4a,5,9b-hexahydro-1H-pyrido[4,3-b]indole dihydrochloride] | 0 | 0 | 0 | 0 | - | 0 | 0 | 0 | 
Cl.Cl.O=C(CCCN1CCC2Nc3ccc(F)cc3C2C1)c1ccc(F)cc1 (stereo not shown) [compound 3, 8-Fluoro-2-[γ-(p-fluorobenzoyl)propyl]-2,3,4,4a,5,9b-hexahydro-1H-pyrido[4,3-b]indole dihydrochloride] | 0 | 0 | - | - | -- | -- | 0 | 0 | 
COc1ccc2c(c1)C1CN(CCCC(=O)c3ccc(F)cc3)CCC1N2.Cl.Cl (stereo not shown) [compound 4, 8-Methoxy-2-[γ-(p-fluorobenzoyl)propyl]-2,3,4,4a,5,9b-hexahydro-1H-pyrido[4,3-b]indole dihydrochloride] | 0 | 0 | 0 | 0 | -- | 0 | 0 | 0 | 
